From the supplement of paper PMC10307832

What was measured:
Test in all cases: relative viability (nuclei count vs DMSO), 5 days (fraction); higher = more cells survive
Entinostat + Alpelisib = compound: Nc1ccccc1NC(=O)c1ccc(CNC(=O)OCc2cccnc2)cc1 [Entinostat] + Cc1nc(NC(=O)N2CCC[C@H]2C(N)=O)sc1-c1ccnc(C(C)(C)C(F)(F)F)c1 [Alpelisib] (partner 2 µM)
In short: (§1)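 Medians of duplicate plates are given as relative viability. That measure is the nuclei count in treated wells divided by the count in vehicle wells. Counts were taken on 4× images of lung cancer cell lines in 1536-well plates, 5 days after pin-tool dosing the day after seeding with one drug alone or a fixed anchor-drug dose plus five library-drug doses (not always all listed) in √10 steps.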

Entinostat + Decitabine = compound: Nc1ccccc1NC(=O)c1ccc(CNC(=O)OCc2cccnc2)cc1 [Entinostat] + Nc1ncn([C@H]2C[C@H](O)[C@@H](CO)O2)c(=O)n1 [Decitabine] (partner 2 µM)
In short: as §1

SGI-1776 + Tozasertib = compound: CN1CCC(CNc2ccc3ncc(-c4cccc(OC(F)(F)F)c4)n3n2)CC1 [SGI-1776] + Cc1cc(Nc2cc(N3CCN(C)CC3)nc(Sc3ccc(NC(=O)C4CC4)cc3)n2)n[nH]1 [Tozasertib] (partner 0.1 µM)
In short: as §1

Entinostat + Palbociclib = compound: Nc1ccccc1NC(=O)c1ccc(CNC(=O)OCc2cccnc2)cc1 [Entinostat] + CC(=O)c1c(C)c2cnc(Nc3ccc(N4CCNCC4)cn3)nc2n(C2CCCC2)c1=O [Palbociclib] (partner 0.5 µM)
In short: as §1

Cell Line | relative viability (Entinostat + Alpelisib; first compound 0.02 µM) | relative viability (Entinostat + Alpelisib; first compound 0.06325 µM) | relative viability (Entinostat + Alpelisib; first compound 0.2 µM) | relative viability (Entinostat + Alpelisib; first compound 0.6325 µM) | relative viability (Entinostat + Alpelisib; first compound 2 µM) | relative viability (Entinostat + Decitabine; first compound 0.02 µM) | relative viability (Entinostat + Decitabine; first compound 0.06325 µM) | relative viability (Entinostat + Decitabine; first compound 0.2 µM) | relative viability (Entinostat + Decitabine; first compound 0.6325 µM) | relative viability (Entinostat + Decitabine; first compound 2 µM) | relative viability (SGI-1776 + Tozasertib; first compound 0.08 µM) | relative viability (SGI-1776 + Tozasertib; first compound 0.8 µM) | relative viability (SGI-1776 + Tozasertib; first compound 2.53 µM) | relative viability (SGI-1776 + Tozasertib; first compound 8 µM) | relative viability (Entinostat + Palbociclib; first compound 0.02 µM) | relative viability (Entinostat + Palbociclib; first compound 0.06325 µM) | relative viability (Entinostat + Palbociclib; first compound 0.2 µM) | relative viability (Entinostat + Palbociclib; first compound 0.6325 µM) | relative viability (Entinostat + Palbociclib; first compound 2 µM)
Calu-6 | 1.01 | 1.06 | 0.941 | 0.624 | 0.457 | – | – | – | – | – | – | – | – | – | – | – | – | – | –
NCI-H1648 | – | – | – | – | – | 0.476 | 0.524 | 0.416 | 0.326 | 0.285 | 0.58 | 0.503 | 0.451 | 0.284 | 0.297 | 0.25 | 0.259 | 0.247 | 0.258
NCI-H1623 | – | – | – | – | – | – | – | – | – | – | 0.436 | 0.425 | 0.39 | 0.45 | – | – | – | – | –
NCI-H322M | 0.817 | 0.826 | 0.738 | 0.866 | 0.675 | 0.742 | 0.722 | 0.787 | 0.725 | 0.665 | 0.551 | 0.483 | 0.461 | 0.394 | 0.499 | 0.533 | 0.495 | 0.546 | 0.516
NCI-H2405 | 0.789 | 1.01 | 0.931 | 0.795 | 0.528 | 0.693 | 0.784 | 0.686 | 0.501 | 0.511 | 0.711 | 0.484 | 0.353 | 0.314 | 0.515 | 0.531 | 0.571 | 0.532 | 0.453
HCC-44 | 0.778 | 0.588 | 0.46 | 0.329 | 0.187 | 0.997 | 0.841 | 0.938 | 0.721 | 0.611 | 0.904 | 0.491 | 0.336 | 0.246 | 1.01 | 0.833 | 0.903 | 0.84 | 0.826
HCC-78 | 0.342 | 0.32 | 0.238 | 0.133 | 0.104 | 0.823 | 0.726 | 0.595 | 0.594 | 0.371 | 0.466 | 0.318 | 0.41 | 0.308 | 0.523 | 0.462 | 0.491 | 0.468 | 0.531
COR-L23 | 0.658 | 0.632 | 0.547 | 0.321 | 0.175 | 0.402 | 0.413 | 0.356 | 0.217 | 0.141 | 0.204 | 0.156 | 0.115 | 0.11 | 0.31 | 0.249 | 0.253 | 0.139 | 0.0938
NCI-H2009 | 1.21 | 1.13 | 1.15 | 0.884 | 0.721 | 0.433 | 0.385 | 0.4 | 0.409 | 0.323 | 0.646 | 0.543 | 0.449 | 0.387 | 0.189 | 0.301 | 0.187 | 0.253 | 0.214
